Each structure is given as a SMILES string. Entries after “also recorded” stand apart in the source; their conditions may differ.

Experimental findings from PMC7529893, “Structural basis for substrate recognition and chemical inhibition of oncogenic MAGE ubiquitin ligases” (Nature Communications, 2020) are described below.

Test [1] concerns PCF11 degradation by MAGE-A11 in HEK293FT cells. Nature of the test: PCF11 degradation by MAGE-A11, immunoblot in HEK293FT cells. It is filed as cell-based. How it is done: HEK293FT, HeLa and DAOY cells were grown in DMEM (Gibco) supplemented with 10% (v/v) FBS (Hyclone), 2 mM L-glutamine, 100 units/ml penicillin, 100 units/ml streptomycin, and […] amphotericin B (Invitrogen). HEK293FT and DAOY cells were transfected with either HA-FLAG-vector, FLAG-MAGE-A11 wild-type or SBC mutants using Effectene (QIAGEN) according to the manufacturer’s protocol in 6 cm^2 plates. After 48 h, cells were selected with 1 µg/ml puromycin (Sigma) over 2 weeks.
(§1) For western blotting, samples in SDS sample buffer were resolved on SDS-PAGE gels and then transferred to nitrocellulose membranes prior to blocking in TBST with 5% (w/v) milk powder or 3% (w/v) bovine serum albumin and probing with primary and secondary antibodies (GE Healthcare). Primary antibodies were: anti-Myc (Sigma, #C3956), anti-FLAG (Sigma, #F3165), anti-HUWE1 (Novus Biologicals, #NB 100-652), anti-PCF11 (Bethyl Laboratories, #A303-706A), anti-GAPDH (Cell Signaling Technology, #2118), anti-TRIM28 (Abcam, #ab22553), anti-AMPKα1 (Cell Signaling Technology, #2795), and anti-MMS19 (Proteintech, #16015-1-AP) and Tb-anti-GST (Invitrogen, #PV3551). Secondary antibodies were: Donkey Anti-Rabbit IgG (GE Healthcare, NA934V) and Sheep Anti-Mouse IgG (GE Healthcare, NA931V). […]
For orientation: A western blot detects proteins with antibodies after separation by electrophoresis.

Test [2] deals with T1, MAGE-A11 binding to PCF11 (Homo sapiens, UniProt P43364).
T1 construct: expressed in transfected cells
T1 sequence (P43364 1-429): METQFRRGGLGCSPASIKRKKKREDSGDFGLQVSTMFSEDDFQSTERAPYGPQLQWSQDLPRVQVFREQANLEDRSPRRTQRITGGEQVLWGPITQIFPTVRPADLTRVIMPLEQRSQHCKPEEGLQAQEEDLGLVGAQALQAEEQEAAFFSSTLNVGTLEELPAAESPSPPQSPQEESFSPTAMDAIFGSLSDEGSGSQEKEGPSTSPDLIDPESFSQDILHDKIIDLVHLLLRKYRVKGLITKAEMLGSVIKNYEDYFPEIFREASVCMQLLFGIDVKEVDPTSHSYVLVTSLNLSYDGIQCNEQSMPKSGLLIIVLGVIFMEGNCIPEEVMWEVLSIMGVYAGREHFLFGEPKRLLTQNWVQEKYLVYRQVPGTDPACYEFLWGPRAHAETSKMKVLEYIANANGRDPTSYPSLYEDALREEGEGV
Nature of the test: Pull-down (co-IP) of FLAG-MAGE-A11 with endogenous PCF11 in cell lysate. The following applies: 100 µM, 24 h, FLAG-MAGE-A11 HEK293FT cell lysates. On the procedure:
(§2) HEK293FT cells were plated in 6 cm^2 plates and transfected 24 h later with Effectene (QIAGEN) according to the manufacturer’s protocol. After 48 h, cells were washed and scraped in cold PBS, spun down, and resuspended in lysis buffer (50 mM Tris pH 7.4, 150 mM NaCl, 1 mM DTT, 0.1% (v/v) Triton X-100, 10 mM N-Ethylmaleimide, and 1X protease inhibitor cocktail (Sigma)). Cell lysates were incubated with appropriate antibodies overnight at 4 °C and then with protein A beads for 2 h at 4 °C. Beads were then washed with lysis buffer three times and eluted with 2X SDS sample buffer.
as §1

Test [3] concerns HEK293FT cells stably expressing FLAG-vector or FLAG-MAGE-A11. Nature of the test: Cell viability, alamarBlue, HEK293FT cells. Format: cell-based. The following applies: HEK293FT FLAG-MAGE-A11 against FLAG-vector, 24 h; listed as SJ521054. How it is done: To assess cell viability after SJ521054 treatment, 1 × 10^4 cells/ml were treated with SJ521054 (0–40 μM) and incubated for 24 h prior to changing the media and adding alamarBlue (Thermo Fisher Scientific) and incubating for 4 h at 37 °C. Plates were read by measuring the fluorescence with excitation wavelength at 540 nm and emission wavelength at 590 nm on an Enspire plate reader.
Background: Resazurin is reduced to fluorescent resorufin, in cell work by metabolically active cells.

The target in a further test is T2, MAGE-F1:MMS19 (Homo sapiens, UniProt Q9HAY2).
T2 construct: expressed in transfected cells
T2 sequence (Q9HAY2 1-307): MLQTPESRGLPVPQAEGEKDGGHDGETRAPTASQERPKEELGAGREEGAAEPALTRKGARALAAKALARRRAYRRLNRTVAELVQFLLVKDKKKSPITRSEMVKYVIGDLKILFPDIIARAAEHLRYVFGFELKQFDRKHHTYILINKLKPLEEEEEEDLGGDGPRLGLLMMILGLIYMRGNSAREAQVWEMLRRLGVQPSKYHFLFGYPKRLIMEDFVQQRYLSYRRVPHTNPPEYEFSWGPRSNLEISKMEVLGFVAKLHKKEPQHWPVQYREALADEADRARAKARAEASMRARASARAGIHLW
Nature of the test: Co-IP of MAGE-F1 with MMS19 in cell lysate. It is filed as binding. Particulars: 100 µM, 24 h. On the procedure:
as §2, §1

`FC(F)(F)c1ccc2c(NCCCNCc3ccc4[nH]ccc4c3)ccnc2c1` [SJ000521054-02]: the “PCF11 protein levels / PCF11 degradation” value in test [1] (HEK293FT cells stably expressing FLAG-MAGE-A11, 24 h, listed as SJ521054) was “blocks PCF11 degradation by MAGE-A11; also recorded: stabilized PCF11 protein levels”. Also, the PCF11 protein levels result in test [1] (HEK293FT vector control cells, 24 h) is reported as “had no effect”. Moreover, the “MAGE-A11 binding to PCF11 in cell lysate” value in test [2] (listed as SJ521054) is “inhibited MAGE-A11 binding to PCF11 in cell lysates”. In addition, the cell viability result in test [3] was “reduces viability of; also recorded: decreased the viability of MAGE-A11 expressing DAOY and HEK293FT cells to a much greater extent than vector control MAGE-A11-negative cells”. On MAGE-F1:MMS19 (listed as SJ521054), the “interaction of MAGE-F1 with MMS19 in cell lysate” value is reported as “do not disrupt interaction; also recorded: did not disrupt interaction”.

As for `c1ccc2c(NCCCNCc3ccc4[nH]ccc4c3)ccnc2c1` [SJ001008066-01], the “MAGE-A11 binding to PCF11 in cell lysate” value in test [2] (listed as SJ1008066) is “inhibited MAGE-A11 binding to PCF11 in cell lysates”. At MAGE-F1:MMS19 (listed as SJ1008066), the “interaction of MAGE-F1 with MMS19 in cell lysate” value is listed as “do not disrupt interaction; also recorded: did not disrupt interaction”.
